≈ marks a conversion by molar mass, not a printed value. Calls of active or inactive are those of the source. The rule behind the calls is not given here.
Tests used:
[1] = target: T1, Cell division protein FtsZ (Staphylococcus aureus) (UniProt P0A031); experiment: Inhibition of Staphylococcus aureus FtsZ GTPase activity at 4 ug/ml preincubated for 10 mins followed by GTP addition and measured after 30 mins relative to control
T1 sequence (whole entry): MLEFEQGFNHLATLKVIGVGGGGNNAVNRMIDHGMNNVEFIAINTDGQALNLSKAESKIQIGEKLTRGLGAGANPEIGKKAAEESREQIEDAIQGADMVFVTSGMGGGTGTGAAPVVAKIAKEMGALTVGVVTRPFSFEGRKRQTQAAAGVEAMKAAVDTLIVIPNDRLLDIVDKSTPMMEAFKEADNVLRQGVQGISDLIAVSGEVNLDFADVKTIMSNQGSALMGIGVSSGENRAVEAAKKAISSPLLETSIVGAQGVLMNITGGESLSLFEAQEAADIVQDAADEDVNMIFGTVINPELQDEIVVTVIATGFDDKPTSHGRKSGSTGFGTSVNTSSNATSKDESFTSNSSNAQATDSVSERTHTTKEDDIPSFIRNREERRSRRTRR

Enterobacter cloacae = experiment: Antimicrobial activity against Ampc beta-lactamase expressing Enterobacter cloacae ATCC BAA-1143 measured after 18 hrs by broth microdilution method; type: functional; conditions: ATCC BAA-1143, 18 h
Escherichia coli [2] = experiment: Antimicrobial activity against NDM1 beta -lactamse expressing Escherichia coli ATCC BAA-2469 measured after 18 hrs by broth microdilution method; type: functional; conditions: ATCC BAA-2469, 18 h
[3] = target: T2, Cell division protein FtsZ (Bacillus subtilis (strain 168)) (UniProt P17865); experiment: Inhibition of cell division function of FtsZ in Bacillus subtilis 168 assessed as increase in cell length at MIC after 4 hrs by FM4-64 dye based confocal microscopic method; conditions: Bacillus subtilis subsp. subtilis str. 168
T2 sequence (whole entry): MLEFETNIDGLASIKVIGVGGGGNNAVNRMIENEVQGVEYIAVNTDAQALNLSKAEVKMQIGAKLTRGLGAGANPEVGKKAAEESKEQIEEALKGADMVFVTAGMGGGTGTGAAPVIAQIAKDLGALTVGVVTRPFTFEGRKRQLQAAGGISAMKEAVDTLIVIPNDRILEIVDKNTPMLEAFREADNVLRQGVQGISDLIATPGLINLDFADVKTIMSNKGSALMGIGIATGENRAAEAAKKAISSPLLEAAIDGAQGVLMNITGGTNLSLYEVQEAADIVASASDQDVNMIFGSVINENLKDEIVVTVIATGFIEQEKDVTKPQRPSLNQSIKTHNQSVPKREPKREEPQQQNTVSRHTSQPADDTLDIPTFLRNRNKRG

Staphylococcus aureus [4] = experiment: Ratio of MBC to MIC for penicillin-resistant Staphylococcus aureus ATCC 29213; type: functional
Staphylococcus aureus [5] = experiment: Antimicrobial activity against penicillin-resistant Staphylococcus aureus ATCC 29213 measured after 18 hrs by broth microdilution method; type: functional; conditions: ATCC 29213, 18 h
[6] = target: T1, Cell division protein FtsZ (Staphylococcus aureus); experiment: Inhibition of Staphylococcus aureus FtsZ GTPase activity at 64 ug/ml preincubated for 10 mins followed by GTP addition and measured after 30 mins relative to control
[7] = target: T1, Cell division protein FtsZ (Staphylococcus aureus); experiment: Inhibition of Staphylococcus aureus FtsZ GTPase activity at 16 ug/ml preincubated for 10 mins followed by GTP addition and measured after 30 mins relative to control
Enterococcus faecium [8] = experiment: Antimicrobial activity against drug-susceptible Enterococcus faecium ATCC 49624 measured after 18 hrs by broth microdilution method; type: functional; conditions: ATCC 49624, 18 h
Escherichia coli [9] = experiment: Antibacterial activity against FtsZ over-expressing Escherichia coli BL21 measured after 18 hrs by broth microdilution method; type: functional; conditions: BL21, 18 h
Staphylococcus aureus [10] = experiment: Ratio of MBC to MIC for methicillin-resistant Staphylococcus aureus ATCC BAA-41; type: functional
Staphylococcus aureus [11] = experiment: Antimicrobial activity against methicillin-resistant Staphylococcus aureus ATCC BAA-41 measured after 18 hrs by broth microdilution method; type: functional; conditions: ATCC BAA-41, 18 h
[12] = target: T1, Cell division protein FtsZ (Staphylococcus aureus); experiment: Inhibition of Staphylococcus aureus FtsZ GTPase activity at 32 ug/ml preincubated for 10 mins followed by GTP addition and measured after 30 mins relative to control
Enterococcus faecium [13] = experiment: Antimicrobial activity against vancomycin-resistant Enterococcus faecium ATCC 700221 measured after 18 hrs by broth microdilution method; type: functional; conditions: ATCC 700221, 18 h
Enterococcus faecalis = experiment: Antimicrobial activity against Enterococcus faecalis ATCC 29212 measured after 18 hrs by broth microdilution method; type: functional; conditions: ATCC 29212, 18 h
Staphylococcus aureus [14] = experiment: Antimicrobial activity against Staphylococcus aureus ATCC 25923 measured after 18 hrs by broth microdilution method; type: functional; conditions: ATCC 25923, 18 h
[15] = target: T1, Cell division protein FtsZ (Staphylococcus aureus); experiment: Inhibition of Staphylococcus aureus FtsZ GTPase activity at 1 ug/ml preincubated for 10 mins followed by GTP addition and measured after 30 mins relative to control
[16] = target: T1, Cell division protein FtsZ (Staphylococcus aureus); experiment: Inhibition of Staphylococcus aureus FtsZ GTPase activity preincubated for 10 mins followed by GTP addition and measured after 30 mins
Staphylococcus aureus [17] = experiment: Bactericidal activity against methicillin-resistant Staphylococcus aureus ATCC BAA-41 incubated for 18 hrs followed by replating on TSB agar and measured after 24 hrs by broth microdilution method; type: functional
Bacillus subtilis [18] = experiment: Antibacterial activity against Bacillus subtilis 168 measured after 18 hrs by broth microdilution method; type: functional; conditions: subsp. subtilis str. 168, 18 h
Klebsiella pneumoniae = experiment: Antimicrobial activity against NDM1 beta-lactamase expressing Klebsiella pneumoniae ATCC BAA-2470 measured after 18 hrs by broth microdilution method; type: functional; conditions: ATCC BAA-2470, 18 h
Escherichia coli [19] = experiment: Antimicrobial activity against Escherichia coli ATCC 25922 measured after 18 hrs by broth microdilution method; type: functional; conditions: ATCC 25922, 18 h
Staphylococcus aureus [20] = experiment: Antimicrobial activity against methicillin-resistant Staphylococcus aureus ATCC 43300 measured after 18 hrs by broth microdilution method; type: functional; conditions: ATCC 43300, 18 h
Escherichia coli [21] = experiment: Antibacterial activity against Escherichia coli BL21 measured after 18 hrs by broth microdilution method; type: functional; conditions: BL21, 18 h
Staphylococcus aureus [22] = experiment: Bactericidal activity against penicillin-resistant Staphylococcus aureus ATCC 29213 incubated for 18 hrs followed by replating on TSB agar and measured after 24 hrs by broth microdilution method; type: functional
Acinetobacter baumannii = experiment: Antimicrobial activity against multidrug-resistant Acinetobacter baumannii ATCC 19606 measured after 18 hrs by broth microdilution method; type: functional; conditions: ATCC 19606 = CIP 70.34 = JCM 6841, 18 h
Pseudomonas aeruginosa = experiment: Antimicrobial activity against multidrug-resistant Pseudomonas aeruginosa ATCC BAA-2108 measured after 18 hrs by broth microdilution method; type: functional; conditions: ATCC BAA-2108, 18 h
Staphylococcus aureus [23] = experiment: Antimicrobial activity against penicillin-resistant Staphylococcus aureus ATCC 29213 assessed as ratio of MIC after and before 15 serial passages preincubated followed by replating and measured after 24 hrs; type: functional
[24] = target: T1, Cell division protein FtsZ (Staphylococcus aureus); experiment: Inhibition of recombinant Staphylococcus aureus FtsZ polymerization by 90 degree light scattering-based fluorescence spectrometric analysis
Staphylococcus aureus [25] = experiment: Bactericidal activity against methicillin-resistant Staphylococcus aureus ATCC BAA-41 assessed as reduction in bacterial load incubated for 1 to 24 hrs followed by replating on MH agar and measured after 24 hrs by time-kill assay; type: functional, organism-based
[26] = target: T2, Cell division protein FtsZ (Bacillus subtilis (strain 168)); experiment: Inhibition of cell division function of FtsZ in Bacillus subtilis 168 assessed as cell length at MIC after 4 hrs by FM4-64 dye based confocal microscopic method; conditions: Bacillus subtilis subsp. subtilis str. 168
Staphylococcus aureus [27] = experiment: Bactericidal activity against methicillin-resistant Staphylococcus aureus ATCC BAA-41 assessed as reduction in bacterial load at 2 to 4 times MIC incubated for 4 hrs followed by replating on MH agar and measured after 24 hrs by time-kill assay; type: functional, organism-based
Staphylococcus aureus [28] = experiment: Bactericidal activity against methicillin-resistant Staphylococcus aureus ATCC BAA-41 assessed as bacterial load at 1 to 4 times MIC incubated for 24 hrs followed by replating on MH agar and measured after 24 hrs by time-kill assay; type: functional
Bacillus subtilis [29] = experiment: Disruption of membrane integrity in Bacillus subtilis 168 at MIC after 4 hrs by FM4-64 dye based confocal microscopic method; type: organism-based, subsp. subtilis str. 168
[30] = target: T1, Cell division protein FtsZ (Staphylococcus aureus); experiment: Inhibition of recombinant Staphylococcus aureus FtsZ polymerization at 0.4 to 1.2 ug/ml by 90 degree light scattering-based fluorescence spectrometric analysis; conditions: TDE = time-dependent effect

C[n+]1c(/C=C/c2c[nH]c3ccccc23)cc(N2CCCCC2)c2ccccc21.[I-]
inhibition [1]: 27.8%
MIC (Enterobacter cloacae): > 64 µg/mL
MIC (Escherichia coli [2]): 16 µg/mL
inhibition [3]: Active
Ratio (Staphylococcus aureus [4]): 2
MIC (Staphylococcus aureus [5]): 1 µg/mL
inhibition [6]: 41.9%
inhibition [7]: 31.8%
MIC (Enterococcus faecium [8]): 2 µg/mL
MIC (Escherichia coli [9]): 16 µg/mL
Ratio (Staphylococcus aureus [10]): 2
MIC (Staphylococcus aureus [11]): 2 µg/mL
inhibition [12]: 34.3%
MIC (Enterococcus faecium [13]): 4 µg/mL
MIC (Enterococcus faecalis): 4 µg/mL
MIC (Staphylococcus aureus [14]): 2 µg/mL
inhibition [15]: 13.6%
inhibition [16]: Dose-dependent effect
MBC (Staphylococcus aureus [17]): 4 µg/mL
MIC (Bacillus subtilis [18]): 4 µg/mL
MIC (Klebsiella pneumoniae): > 64 µg/mL
MIC (Escherichia coli [19]): 8 µg/mL
MIC (Staphylococcus aureus [20]): 4 µg/mL
MIC (Escherichia coli [21]): 8 µg/mL
MBC (Staphylococcus aureus [22]): 2 µg/mL
MIC (Acinetobacter baumannii): 16 µg/mL
MIC (Pseudomonas aeruginosa): > 64 µg/mL
Ratio (Staphylococcus aureus [23]): 4

CC1CCN(c2cc(/C=C/c3c[nH]c4ccccc34)[n+](C)c3ccccc23)CC1.[I-]
MIC (Enterobacter cloacae): > 64 µg/mL
MIC (Escherichia coli [2]): 32 µg/mL
inhibition [3]: Active
MIC (Staphylococcus aureus [5]): 4 µg/mL
MIC (Enterococcus faecium [8]): 2 µg/mL
MIC (Staphylococcus aureus [11]): 4 µg/mL
MIC (Enterococcus faecium [13]): 4 µg/mL
MIC (Enterococcus faecalis): 4 µg/mL
MIC (Staphylococcus aureus [14]): 2 µg/mL
MIC (Bacillus subtilis [18]): 4 µg/mL
MIC (Klebsiella pneumoniae): > 64 µg/mL
MIC (Escherichia coli [19]): 16 µg/mL
MIC (Staphylococcus aureus [20]): 4 µg/mL
MIC (Acinetobacter baumannii): 32 µg/mL
MIC (Pseudomonas aeruginosa): > 64 µg/mL

C[n+]1c(/C=C/c2cc3ccccc3[nH]2)cc(N2CCCCC2)c2ccccc21.[I-]
inhibition [1]: 30.2%
inhibition [24]: Dose-dependent effect
MIC (Enterobacter cloacae): > 64 µg/mL
MIC (Escherichia coli [2]): 16 µg/mL
Activity (Staphylococcus aureus [25]): Dose-dependent effect
Ratio (Staphylococcus aureus [4]): 2
MIC (Staphylococcus aureus [5]): 1 µg/mL
inhibition [6]: 52.1%
inhibition [7]: 40.8%
MIC (Enterococcus faecium [8]): 2 µg/mL
MIC (Escherichia coli [9]): 32 µg/mL
Ratio (Staphylococcus aureus [10]): 2
MIC (Staphylococcus aureus [11]): 2 µg/mL
inhibition [12]: 48.3%
Activity [26]: 70 to 130 µm
MIC (Enterococcus faecium [13]): 4 µg/mL
MIC (Enterococcus faecalis): 4 µg/mL
MIC (Staphylococcus aureus [14]): 1 µg/mL
Activity (Staphylococcus aureus [27]): Active
inhibition [15]: 17.9%
inhibition [16]: Dose-dependent effect
MBC (Staphylococcus aureus [17]): 4 µg/mL
MIC (Bacillus subtilis [18]): 4 µg/mL
MIC (Klebsiella pneumoniae): > 64 µg/mL
Activity (Staphylococcus aureus [28]): 1 ×10³ CFU/ml
MIC (Escherichia coli [19]): 16 µg/mL
Activity (Bacillus subtilis [29]): Non-Toxic
MIC (Staphylococcus aureus [20]): 2 µg/mL
MIC (Escherichia coli [21]): 8 µg/mL
inhibition [30]: Tde
MBC (Staphylococcus aureus [22]): 2 µg/mL
MIC (Acinetobacter baumannii): 32 µg/mL
MIC (Pseudomonas aeruginosa): > 64 µg/mL
Ratio (Staphylococcus aureus [23]): 4

CN[C@H](CC(C)C)C(=O)N[C@H]1C(=O)N[C@@H](CC(N)=O)C(=O)N[C@H]2C(=O)N[C@H]3C(=O)N[C@H](C(=O)N[C@H](C(=O)O)c4cc(O)cc(O)c4-c4cc3ccc4O)[C@H](O)c3ccc(c(Cl)c3)Oc3cc2cc(c3O[C@@H]2O[C@H](CO)[C@@H](O)[C@H](O)[C@H]2O[C@H]2C[C@](C)(N)[C@H](O)[C@H](C)O2)Oc2ccc(cc2Cl)[C@H]1O [VANCOMYCIN]
MIC (Enterobacter cloacae): > 64 µg/mL
MIC (Escherichia coli [2]): > 64 µg/mL
MIC (Enterococcus faecium [13]): > 64 µg/mL
MIC (Enterococcus faecalis): 2 µg/mL (≈ 1.38 µM)
MBC (Staphylococcus aureus [17]): 2 µg/mL (≈ 1.38 µM)
MIC (Bacillus subtilis [18]): 0.25 µg/mL (≈ 0.173 µM)
MIC (Klebsiella pneumoniae): > 64 µg/mL
MIC (Escherichia coli [19]): > 64 µg/mL
MBC (Staphylococcus aureus [22]): 2 µg/mL (≈ 1.38 µM)
MIC (Acinetobacter baumannii): 64 µg/mL (≈ 44.2 µM)
MIC (Pseudomonas aeruginosa): > 64 µg/mL

CO[C@H]1/C=C/O[C@@]2(C)Oc3c(C)c(O)c4c(O)c(c(/C=N/N5CCN(C)CC5)c(O)c4c3C2=O)NC(=O)/C(C)=C\C=C\[C@H](C)[C@H](O)[C@@H](C)[C@@H](O)[C@@H](C)[C@H](OC(C)=O)[C@@H]1C [RIFAMPIN]
Ratio (Staphylococcus aureus [23]): 2000
